# Laboratory results reported in patent publication US7138361B2, “Herbicidal heterocycles” (E. I. du Pont de Nemours and Company, priority 2000, dated 2006).
# Tests used:
# Format in all cases: in vivo
# rice (Oryza saliva) = assay: Test C flooded paddy test; settings: for Rice plant response rating: Flooded Paddy, scale 0 to 100, 0 no effect, 100 complete control; for Plant response rating, Rice: flooded paddy test, scale 0 to 100 (0 no effect, 100 complete control)
# Summary of the method: (§1)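 Greenhouse-maintained for 12 to 14 days after treatment, the paddy plants (2-leaf stage at application) were scored visually against controls. A score of 0 denotes no effect and a score of 100 denotes complete control.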
# [1] = tested on: barnyardgrass (Echinochloa crus-galli); assay: Test C flooded paddy test; settings: for Barnyardgrass plant response rating: Flooded Paddy, scale 0 to 100, 0 no effect, 100 complete control; for Plant response rating, Barnyardgrass: flooded paddy test, scale 0 to 100 (0 no effect, 100 complete control)
# Summary of the method: as §1
# Sunflower [2] = assay: Test C preemergence; settings: Rate 250 g/ha, visual evaluation after 12 to 14 days
# Nightshade = assay: Test C preemergence
# Sunflower [3] = assay: Test C preemergence
# [4] = tested on: velvetleaf (Abutilon theophrasti); assay: Test C preemergence
# Summary of the method: (§2)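 Formulation: non-phytotoxic solvent mix incl. surfactant. Pre: applied right after planting. Post: 1–4-leaf seedlings. Read: visual 0–100, day 12–14, greenhouse.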
# [5] = tested on: woolly cupgrass (Eriochloa villosa); assay: Test C preemergence
# Summary of the method: as §2
# soybean (Glycine max) = assay: Test C preemergence
# Summary of the method: as §2
# [6] = tested on: giant foxtail (Setaria faberii); assay: Test C preemergence
# Summary of the method: as §2
# [7] = tested on: pigweed (Amaranthus retroflexus); assay: Test C preemergence
# Summary of the method: as §2
# [8] = tested on: goosegrass (Eleusine indica); assay: Test C preemergence
# Summary of the method: as §2
# [9] = tested on: yellow nutsedge (Cyperus esculentus); assay: Test C preemergence
# Summary of the method: as §2
# [10] = tested on: johnsongrass (Sorghum halepense); assay: Test C preemergence
# Summary of the method: as §2
# [11] = tested on: common ragweed (Ambrosia elatior); assay: Test C preemergence
# Summary of the method: as §2
# [12] = tested on: cocklebur (Xanthium strumarium); assay: Test C preemergence
# Summary of the method: as §2
# kochia (Kochia scoparia) = assay: Test C preemergence
# Summary of the method: as §2
# corn (Zea mays) = assay: Test C preemergence
# Summary of the method: as §2
# [13] = tested on: Surinam grass (Brachiaria decumbens); assay: Test C preemergence
# Summary of the method: as §2
# [14] = tested on: bermudagrass (Cynodon dactylon); assay: Test C preemergence
# Summary of the method: as §2
# [15] = tested on: morningglory (Ipomoea hederacea); assay: Test C preemergence
# Summary of the method: as §2
# [16] = tested on: crabgrass (Digitaria sanguinalis); assay: Test C preemergence
# Summary of the method: as §2
# [17] = tested on: lambsquarters (Chenopodium album); assay: Test C preemergence
# Summary of the method: as §2
# [18] = Rate 62 g/ha, scale 0 to 100, 0 no effect, 100 complete control
# [19] = Preemergence, Rate 500 g/ha, scale 0 to 100
# [20] = preemergence, Rate 250 g/ha, visual evaluation after 12 to 14 days
# [21] = preemergence, Rate 125 g/ha, scale 0 to 100, 0 no effect, 100 complete control
smiles,measurement,setting,value
CCC(C)c1ccn(C2SCN(c3cccc(OC(F)(F)F)c3)C2=O)n1 (centres unmarked) [Compound 40],Rice plant response rating,rice (Oryza saliva); Rate 250 g/ha,70
same,Rice plant response rating,rice (Oryza saliva); Rate 500 g/ha,90
same,"Plant response rating, Rice",rice (Oryza saliva); Rate 62 g/ha,20
same,"Plant response rating, Rice",rice (Oryza saliva); Rate 125 g/ha,40
same,Barnyardgrass plant response rating,[1]; Rate 250 g/ha,100
same,Barnyardgrass plant response rating,[1]; Rate 500 g/ha,100
same,"Plant response rating, Barnyardgrass",[1]; Rate 62 g/ha,100
same,"Plant response rating, Barnyardgrass",[1]; Rate 125 g/ha,100
same,"Plant response rating (0 to 100), Sunflower",Sunflower [2],30
same,"Plant response rating, Nightshade",Nightshade; [18],0
same,"Plant response rating, Nightshade","Nightshade; Rate 125 g/ha, scale 0 to 100, 0 no effect, 100 complete control",0
same,"Plant response rating, Nightshade","Nightshade; Rate 500 g/ha, scale 0 to 100",70
same,"Plant response rating, Sunflower",Sunflower [3]; [18],0
same,"Plant response rating, Sunflower","Sunflower [3]; Rate 500 g/ha, scale 0 to 100",40
same,"Plant response rating, Velvetleaf",[4]; [19],50
same,"Plant response rating, Velvetleaf",[4]; [18],0
same,"Plant response rating (0 to 100), Velvetleaf",[4]; [20],30
same,"Plant response rating, Velvetleaf",[4]; [21],0
same,"Plant response rating, Cupgrass, Woolly",[5]; [19],100
same,"Plant response rating, Cupgrass, Woolly",[5]; [18],60
same,"Plant response rating (0 to 100), Cupgrass, Woolly",[5]; [20],90
same,"Plant response rating, Cupgrass, Woolly",[5]; [21],90
same,"Plant response rating, Soybean",soybean (Glycine max); [19],40
same,"Plant response rating (0 to 100), Soybean",soybean (Glycine max); [20],40
same,"Plant response rating, Soybean",soybean (Glycine max); [21],20
same,"Plant response rating, Foxtail, Giant",[6]; [19],100
same,"Plant response rating, Foxtail, Giant",[6]; [18],90
same,"Plant response rating (0 to 100), Foxtail, Giant",[6]; [20],100
same,"Plant response rating, Foxtail, Giant",[6]; [21],0
same,"Plant response rating, Pigweed",[7]; [19],100
same,"Plant response rating, Pigweed",[7]; [18],0
same,"Plant response rating (0 to 100), Pigweed",[7]; [20],0
same,"Plant response rating, Pigweed",[7]; [21],100
same,"Plant response rating, Goosegrass",[8]; [19],100
same,"Plant response rating, Goosegrass",[8]; [18],90
same,"Plant response rating (0 to 100), Goosegrass",[8]; [20],100
same,"Plant response rating, Goosegrass",[8]; [21],100
same,"Plant response rating, Nutsedge",[9]; [19],60
same,"Plant response rating, Nutsedge",[9]; [18],0
same,"Plant response rating (0 to 100), Nutsedge",[9]; [20],50
same,"Plant response rating, Nutsedge",[9]; [21],0
same,"Plant response rating, Johnsongrass",[10]; [19],100
same,"Plant response rating, Johnsongrass",[10]; [18],50
same,"Plant response rating (0 to 100), Johnsongrass",[10]; [20],100
same,"Plant response rating, Johnsongrass",[10]; [21],100
same,"Plant response rating, Ragweed, Common",[11]; [19],70
same,"Plant response rating, Ragweed, Common",[11]; [18],0
same,"Plant response rating (0 to 100), Ragweed, Common",[11]; [20],30
same,"Plant response rating, Ragweed, Common",[11]; [21],0
same,"Plant response rating, Cocklebur",[12]; [19],60
same,"Plant response rating, Cocklebur",[12]; [18],20
same,"Plant response rating, Cocklebur",[12]; [21],20
same,"Plant response rating, Kochia",kochia (Kochia scoparia); [19],100
same,"Plant response rating, Kochia",kochia (Kochia scoparia); [18],60
same,"Plant response rating (0 to 100), Kochia",kochia (Kochia scoparia); [20],100
same,"Plant response rating, Kochia",kochia (Kochia scoparia); [21],90
same,"Plant response rating, Corn",corn (Zea mays); [19],90
same,"Plant response rating, Corn",corn (Zea mays); [18],0
same,"Plant response rating (0 to 100), Corn",corn (Zea mays); [20],50
same,"Plant response rating, Corn",corn (Zea mays); [21],20
same,"Plant response rating, Surinam grass",[13]; [19],100
same,"Plant response rating, Surinam grass",[13]; [18],0
same,"Plant response rating (0 to 100), Surinam grass",[13]; [20],90
same,"Plant response rating, Surinam grass",[13]; [21],80
same,"Plant response rating, Bermudagrass",[14]; [19],100
same,"Plant response rating, Bermudagrass",[14]; [18],80
same,"Plant response rating (0 to 100 where 0 is no effect and 100 is complete control), Bermudagrass",[14]; [20],100
same,"Plant response rating, Bermudagrass",[14]; [21],100
same,"Plant response rating, Morningglory",[15]; [19],0
same,"Plant response rating, Morningglory",[15]; [18],0
same,"Plant response rating (0 to 100), Morningglory",[15]; [20],0
same,"Plant response rating, Morningglory",[15]; [21],0
same,"Plant response rating, Crabgrass",[16]; [19],100
same,"Plant response rating, Crabgrass",[16]; [18],100
same,"Plant response rating (0 to 100), Crabgrass",[16]; [20],100
same,"Plant response rating, Crabgrass",[16]; [21],100
same,"Plant response rating, Lambsquarters",[17]; [19],100
same,"Plant response rating, Lambsquarters",[17]; [18],100
same,"Plant response rating (0 to 100), Lambsquarters",[17]; [20],100
same,"Plant response rating, Lambsquarters",[17]; [21],100
